The text below walks through data of patent publication US12459973B2, “Peptide compounds for reducing side effects of CB1 receptor agonists” (priority 2019, dated 2025).

Non-standard residues stand in square brackets, D forms with d. Residues, ends and D or L forms follow the SMILES beside them. No end group written: not given here.

Data set [1] addresses T1, CB1R and 5-HT2AR heteromers (Homo sapiens, UniProt P28223).
T1 construct: expressed in transfected cells; host or cells: HEK-293T
Description: Disruption of CB1R and 5-HT2AR heteromers by bimolecular fluorescence complementation. Type of data set: cell-based. Particulars: HEK-293T, CB1R-nYFP + 5-HT2AR-cYFP, peptide 4 μM, 4 h, 37° C. From the text:
The method described in “Viñals* X, Moreno* E, Lanfumey L, Cordomi A, Pastor A, de La Torre R, Gasperini P, Navarro G, Howell L A, Pardo L, Lluís C, Canela El, McCormick* P J, Maldonado* R, Robledo* P. Cognitive Impairment Induced by Delta9-tetrahydrocannabinol Occurs through Heteromers between Cannabinoid CB1 and Serotonin 5-HT2A Receptors. PLoS Biology, 13(7): e1002194 (2015)” was used with the slight modifications herein described herein to determine the in vitro capacity of the peptides to disrupt CB1R and 5-HT2AR heteromers.
To obtain the YFP Venus hemi-truncated proteins fused to the receptors of interest (5-HT2AR-cYFP, CB1R-nYFP), 5-HT2AR was subcloned to be in-frame with restriction sites of pcDNA3.1-cVenus, which contained the sequences encoding amino acid residues 156-238 of YFP Venus protein. Moreover, CB1R was subcloned to be in-frame with restriction sites of pcDNA3.1-nVenus, which contained the sequences encoding amino acid residues 1-155 of YFP Venus protein.
Expression of constructs was tested by confocal microscopy and the receptor fusion protein functionality by ERK1/2 phosphorylation.
Human embryonic kidney (HEK-293T) cells obtained from ATCC were grown in Dulbecco's modified Eagle's medium (DMEM) (Gibco) supplemented with 2 mM L-glutamine, 100 μg/ml sodium pyruvate, 100 U/ml penicillin/streptomycin, MEM Non-Essential Amino Acids Solution (1/100), and 5% (v/v) heat inactivated fetal bovine serum (FBS) (all supplements were from Invitrogen, Paisley, Scotland, UK). Cells were maintained at 37° C. in an atmosphere of 5% CO2.
Cells growing in 6-well dishes were transiently transfected with the cDNA encoding for CB1R fused to the YFP Venus N-terminal fragment (n-YFP) and 5-HT2AR fused to the YFP Venus C-terminal fragment (c-YFP) by the PEI (PolyEthylenlmine, Sigma) method. Cells were incubated 4 h with the corresponding cDNA together with PEI and 150 mM NaCl in a serum-starved medium. After 4 h, the medium was changed to a fresh complete culture medium.
After 48 h, cells were treated or not with the indicated TAT-peptides (4 μM) for 4 h at 37° C. To quantify the complemented YFP Venus expression, cells were washed twice in quick succession in HBSS with 10 mM glucose, detached, and resuspended in the same buffer. To control the cell number, sample protein concentration was determined using a Bradford assay kit (Bio-Rad, Munich, Germany) using bovine serum albumin dilutions as standards. 20 μg protein were distributed into 96-well microplates (black plates with a transparent bottom, Porvair, King's Lynn, UK), and fluorescence emission at 530 nm after the excitation at 500 nm with a Mithras LB940 (Berthold Technologies, Bad Wildbad, Germany) was recorded. Protein fluorescence was determined as fluorescence of the sample minus the fluorescence of untransfected cells (basal).

Data set [2] can be described thus: Novel object recognition test (memory). Format: in vivo. To be noted: Vehicle (IV) + THC 3 mg/kg IP, mice. Here is the method:
The method described in “Puighermanal E, Marsicano G, Busquets-Garcia A, Lutz B, Maldonado R, Ozaita A. Cannabinoid modulation of hippocampal long-term memory is mediated by mTOR signaling. Nature Neuroscience, 12(9): 1152-8 (2009)” was used with the slight modifications herein described to assess the effect of the peptides on memory.
On day 1 (Habituation), mice were habituated for 9 min to the V-maze in which the task was performed. On the second day (Training), mice were put back in the V-maze for 9 min, two identical objects were presented and the time that the mice spent exploring each object was recorded. The mice were again placed in the maze 24 h later for 9 min (Test), one of the familiar objects was replaced with a novel object and the total time spent exploring each of the two objects (novel and familiar) was computed. Object exploration was defined as the orientation of the nose to the object at less than 2 cm. A discrimination index was calculated as the difference between the times spent exploring the novel or familiar object divided by the total time exploring the two objects. A higher discrimination index is considered to reflect greater memory retention for the familiar object as normal mice spend more time exploring a novel object than a familiar one. […]

Data set [3] in a line: Hot plate test (analgesic effect). Format: in vivo. To be noted: Vehicle (IV) + THC 10 mg/kg IP, hot plate 52° C., mice. Here is the method: The method described in “Monory K, Blaudzun H, Massa F, Kaiser N, Lemberger T, Schütz G, Wotjak C T, Lutz B*, Marsicano G*. Genetic Dissection of Behavioural and Autonomic Effects of D9-tetrahydrocannabinol in Mice. PLoS Biology, 5(10): e269, 2007” was used with the slight modifications herein described to assess the analgesic effect of the peptides.
THC-induced analgesia was measured using a hot plate analgesia meter (Hot/Cold Plate Test, Bioseb, USA) 60 min after intraperitoneal injection (IP) of THC dissolved in an IP vehicle (5% v/v of ethanol, 5% v/v of Cremophor-EL and 90% v/v saline) or injection of the vehicle (saline plus 2% DMSO) alone and by intravenous injection 90 min after the first injection of the peptide to be tested in an IV vehicle or of the vehicle alone. […] A cut-off time of 240 s was set to prevent tissue damage.
A general note: Thermal pain tests record how soon the animal reacts.

The nature of a further data set: in vitro. Particulars: mouse, bEnd.3 brain endothelioma cells. Here is the method: (§1) bEnd.3 brain endothelioma cells (ATCC® CRL-2299TM) were grown as a monolayer on 75 cm^2 T-flasks in DMEM supplemented with 10% fetal bovine serum (FBS), and 1% penicillin/streptomycin antibiotic solution (Gibco™, USA). Cells were cultured in a humidified atmosphere of 95% air and 5% CO2 at 37° C. (MCO-18AIC (UV), Sanyo, Japan), with the medium changed every other day. The cells were harvested from cell culture T-flasks when confluent with trypsin-EDTA (Gibco™, USA) and used in different assays (cell proliferation, in vitro BBB translocation and in vitro Bimolecular Fluorescence complementation).
(§2) The in vitro cytotoxicity of the compound to be evaluated is studied using the same cell line of the in vitro BBB model, namely bEnd.3 cells, to evaluate possible toxicity. bEnd.3 cell line was exposed to increasing concentrations of the compound for 24 h.
(§3) The assay is based on the ability of viable cells to reduce resazurin into resorufin, a highly fluorescent metabolite. Non-viable cells are not able to generate resorufin.
(§4) Therefore, using this approach is possible to distinguish between metabolic and non-metabolic cells, and indirectly to determine the cytotoxicity of different compounds. bEnd.3 cells were seeded onto a 96-well plate (Corning, USA) at 10,000 cells/100 μL/well and incubated for 24 h. After medium removal, 100 μL of previous diluted peptides (range between 0.01-50 μM) in DMEM medium were added to the wells. After 24 h incubation, 20 μL of CellTiter-Blue® Reagent was added to each well and incubated for 3 h in a humidified atmosphere of 5% CO2 at 37° C. The fluorescence intensity was measured with an λexc=560 nm and an λem=590 nm using an Infinite F200 TECAN plate reader. Medium and 1% Triton X-100-containing medium were used as positive controls (100% cell viability) and negative controls (0% cell viability), respectively. Cell viability (%) was determined using the following equation:
(§5) [formula] where Fp is the fluorescence intensity of peptide-treated cells, FNC is the fluorescence intensity for negative controls, and FPC is the fluorescence intensity for positive controls.
(§6) Experiments were performed on different days using independently grown cell cultures.

The next data set concerns bEnd.3 cells. The data set is described as follows: in vitro. Particulars: bEnd.3, 24 h, 0.01-50 μM. Here is the method:
as §1, §2, §3, §4, §5, §6

Data set [4] deals with trypsin. To be noted: peptide remaining by HPLC, incubation with trypsin 100:1, 37° C.
Description: (§7) A 1000 μg/1000 μL trypsin solution (Thermo Fisher Scientific) was prepared by suspending the lyophilized enzyme in 50 mM ammonium bicarbonate buffer, pH 8.2. Peptide dissolved in the same buffer (1 μg/L) was incubated with trypsin (peptide:trypsin ratio=100:1) for 24 h at 37° C. Samples were collected at various time points and digestion was stopped by addition of 20% (v/v) of 0.5% formic acid in H2O. Samples were stored at −20° C. until analyzed by reverse-phase HPLC-MS. Experiments are performed in duplicate and data were fit with GraphPad Prism.
The subject of data set [5] is trypsin. The data set is described as follows: in vitro. To be noted: pH 8.2.
Description: as §7

Broadly, the EC50 is the concentration that produces a half-maximal response. High values mean weaker potency, low ones greater potency. By viability is commonly meant a read-out of living cells in per cent, often relative to untreated cells. Broadly, the fraction remaining is the share of the starting amount still present when the sample was taken. Read a low fraction remaining as a greater loss.

T1 sequence (P28223 whole entry, one chain of several): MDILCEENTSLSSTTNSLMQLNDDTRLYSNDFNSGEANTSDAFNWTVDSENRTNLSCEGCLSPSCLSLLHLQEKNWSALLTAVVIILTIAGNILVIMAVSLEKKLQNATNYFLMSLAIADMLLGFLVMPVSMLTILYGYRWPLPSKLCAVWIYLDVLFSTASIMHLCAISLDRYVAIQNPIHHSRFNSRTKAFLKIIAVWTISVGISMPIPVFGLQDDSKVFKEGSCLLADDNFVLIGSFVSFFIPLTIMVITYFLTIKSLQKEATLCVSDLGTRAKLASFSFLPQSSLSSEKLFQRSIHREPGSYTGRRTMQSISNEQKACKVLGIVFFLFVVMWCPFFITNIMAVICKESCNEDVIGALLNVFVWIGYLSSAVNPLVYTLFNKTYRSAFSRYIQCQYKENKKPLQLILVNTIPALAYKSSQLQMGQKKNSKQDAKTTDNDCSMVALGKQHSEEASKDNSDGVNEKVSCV

As for “Glu-Thr-Tyr-Leu-Met-Phe-Trp-Ile-Gly-Val-Thr-Ser-Val-Leu-Leu-Leu-Phe-Ile-Val-Tyr-Ala-Tyr-Met-Tyr-Ile-Leu-Trp-Gly-Arg-Lys-Lys-Arg-Arg-Gln-Arg-Arg-Arg-NH2 (ETYLMFWIGVTSVLLLFIVYAYMYILWGRKKRRQRRR-NH2) [Reference Example 1]”, in data set [1], the “% vs. control (bimolecular fluorescence complementation)” value (“% vs. control” below) turned out to be 52.2% and the “Fluorescense units (bimolecular fluorescence complementation)” value (shortened to “Fluorescense units”) amounted to 11154 fluorescence units.
As to `CCCCCc1cc(O)c2c(c1)OC(C)(C)[C@@H]1CCC(C)=C[C@@H]21` [THC, Δ9-tetrahydrocannabinol], the “Discrimination index % increase vs. control” value in data set [2] is reported as −52%. Further, in data set [3], the “Jumping latency % increase vs control” value came to 71.4% and the “Licking latency % increase vs control” value amounted to 104.2%.
“VYAYMYILW[dA]G[dI][dL][dK][dR][dW]-NH2 [Reference Example 2]”: in data set [1], the “% vs. control” value is on record as 63.5% and the “Fluorescense units” value came out at 13568 fluorescence units.
Take `CC[C@@H](C)[C@@H](NC(=O)CNC(=O)[C@@H](C)NC(=O)[C@H](NC(=O)[C@@H](Cc1ccc(O)cc1)NC(=O)[C@@H](C)NC(=O)[C@@H](Cc1ccc(O)cc1)NC(=O)[C@@H](CCSC)NC(=O)[C@@H](Cc1ccc(O)cc1)NC(=O)[C@H](NC(=O)[C@@H](CC(C)C)NC(=O)[C@H](N)Cc1c[nH]c2ccccc12)[C@H](C)CC)C(C)C)C(=O)N[C@H](CC(C)C)C(=O)N[C@H](CCCCN)C(=O)N[C@H](CCCNC(=N)N)C(=O)N[C@H](Cc1c[nH]c2ccccc12)C(N)=O` [Example 1, D-Trp-D-Leu-D-Ile-D-Tyr-D-Met-D-Tyr-D-Ala-D-Tyr-D-Val-D-Ala-Gly-D-Ile-D-Leu-D-Lys-D-Arg-D-Trp-NH2] (H-[dW][dL][dI][dY][dM][dY][dA][dY][dV][dA]G[dI][dL][dK][dR][dW]-NH2): in the data set “in vitro”, the 50% effective concentration (EC50) at 24 h is more than 50 µM; the viability at 24 h, 0.012 µM is 98.3%; the viability at 24 h, 0.024 µM turned out to be 98.3%; the viability at 24 h, 0.049 µM came out at 98.7%. Also, in the data set “in vitro”, the viability at 24 h, 0.1 µM was determined as 95.4%; the viability at 24 h, 0.2 µM worked out at 100%; the viability at 24 h, 0.39 µM was 102%; the viability at 24 h, 0.78 µM is 98.9%. In the data set “in vitro”, the viability at 24 h, 1.56 µM was determined as 102%; the viability at 24 h, 3.12 µM was 100%; the viability at 24 h, 6.25 µM is 96.6%; the viability at 24 h, 12.5 µM came out at 104%. Besides, in “in vitro”, the viability at 24 h, 25 µM stood at 96.6% and the viability at 24 h, 50 µM turned out to be 75.7%. Also, the “toxicity (in words)” value in the data set with bEnd.3 cells is given as “no significant toxicity”. In data set [1], the “% vs. control” value was 49.8%. For the same compound, the “% at t = 24 h” value with trypsin [4] (pH 8.2, 24 h) is reported as “over 80%”. For the same compound, the “% at t = 0” value with trypsin [4] (pH 8.2, t = 0) is listed as 100.00 ± 2.05%. Further, the share remaining at 24 h, 1 μg/L in the data set on trypsin [5] is 83 ± 4.04%.
As to “[dW][dL][dI][dY][dM][dA]G[dI][dL][dK][dR][dW]-NH2 [Reference Example 3]”, in data set [1], the “% vs. control” value was determined as 78.5% and the “Fluorescense units” value stood at 16754 fluorescence units.
